Test results from article PMC10141580, “Cyclic Dichalcogenides Extend the Reach of Bioreductive Prodrugs to Harness Thiol/Disulfide Oxidoreductases: Applications to seco-Duocarmycins Targeting the Thioredoxin System” (ACS Central Science, 2023).
Where two headings read alike, the source gives them in different places.

Test system: NCI-60 standardized human tumor cell line panel
Test: cells
Assay type: cell-based
Conditions: for NCI-60 screening: Log(RedIndex): log10 reductive index vs P-CC60; for GI50: Homo sapiens

COc1cc2cc(C(=O)N3C[C@@H](CCl)c4c3cc(OC(=O)N3CCN(C(=O)CCC(=O)N5CCN(C)CC5)[C@H]5CSSC[C@H]53)c3ccccc43)[nH]c2c(OC)c1OC [P-SS66C-CBI-TMI]
reductive activation index ratio NCI-60/ProliFiler, mean (19 overlapping cell lines): 1.8 fold | NCI-60 screening: Log(RedIndex) (786-0 (RE) cell line): 1.22 | NCI-60 screening: Log(RedIndex) (A498 (RE) cell line): 1.1 | NCI-60 screening: Log(RedIndex) (ACHN (RE) cell line): 1.07 | NCI-60 screening: Log(RedIndex) (CAKI-1 (RE) cell line): 0.94 | NCI-60 screening: Log(RedIndex) (DU-145 (PR) cell line): 1.27 | GI50 (786-0, 786-0 (RE) cell line, log10 of GI50 in M, read-out: NCI-60 screening: Log(GI50) (converted)): 105 nM | GI50 (786-0, 786-0 (RE) cell line, read-out: NCI-60 screening: Raw GI50): 110 nM | GI50 (786-0, 786-0, read-out: GI50): 110 nM | GI50 (A498, A498 (RE) cell line, log10 of GI50 in M, read-out: NCI-60 screening: Log(GI50) (converted)): 219 nM | GI50 (A498, A498, read-out: GI50): 220 nM | GI50 (A549, A549/ATCC, read-out: GI50): 90 nM | GI50 (A549, cell line A549/ATCC (LC:A549/ATCC), TMI sheet, read-out: NCI-60 screening: Log(GI50) (converted)): 89.1 nM | GI50 (ACHN, ACHN (RE) cell line, log10 of GI50 in M, read-out: NCI-60 screening: Log(GI50) (converted)): 42.7 nM | GI50 (ACHN, read-out: GI50): 42 nM | GI50 (BT-549, BT-549, read-out: GI50): 140 nM | GI50 (BT-549, cell line BT-549 (BR:BT-549), TMI sheet, read-out: NCI-60 screening: Log(GI50) (converted)): 145 nM | GI50 (BT-549, cell line BT-549 (BR:BT-549), TMI sheet, read-out: NCI-60 screening: Raw GI50): 140 nM | GI50 (CAKI-1, CAKI-1 (RE) cell line, log10 of GI50 in M, read-out: NCI-60 screening: Log(GI50) (converted)): 174 nM | GI50 (CAKI-1, Caki-1, read-out: GI50): 170 nM | GI50 (CCRF-CEM, cell line CCRF-CEM (LE:CCRF-CEM), TMI sheet, read-out: NCI-60 screening: Log(GI50) (converted)): 269 nM | GI50 (CCRF-CEM, cell line CCRF-CEM (LE:CCRF-CEM), TMI sheet, read-out: NCI-60 screening: Raw GI50): 270 nM | GI50 (CCRF-CEM, read-out: GI50): 270 nM | GI50 (COLO 205, Colo 205, read-out: GI50): 140 nM | GI50 (COLO 205, cell line COLO 205 (CO:COLO 205), TMI sheet, read-out: NCI-60 screening: Log(GI50) (converted)): 145 nM | GI50 (COLO 205, cell line COLO 205 (CO:COLO 205), TMI sheet, read-out: NCI-60 screening: Raw GI50): 140 nM | GI50 (DU-145, DU-145 (PR) cell line, log10 of GI50 in M, read-out: NCI-60 screening: Log(GI50) (converted)): 24.5 nM | GI50 (DU-145, DU-145, read-out: GI50): 25 nM | GI50 (EKVX, cell line EKVX (LC:EKVX), TMI sheet, read-out: NCI-60 screening: Log(GI50) (converted)): 209 nM | GI50 (EKVX, read-out: GI50): 210 nM | GI50 (HCC 2998, HCC-2998, read-out: GI50): 54 nM | GI50 (HCC 2998, cell line HCC-2998 (CO:HCC-2998), TMI sheet, read-out: NCI-60 screening: Log(GI50) (converted)): 53.7 nM | GI50 (HCT-15, HCT-15, read-out: GI50): 240 nM | GI50 (HCT-15, cell line HCT-15 (CO:HCT-15), TMI sheet, read-out: NCI-60 screening: Log(GI50) (converted)): 245 nM | GI50 (HCT-15, cell line HCT-15 (CO:HCT-15), TMI sheet, read-out: NCI-60 screening: Raw GI50): 240 nM | GI50 (HCT-116, HCT-116, read-out: GI50): 150 nM | GI50 (HCT-116, cell line HCT-116 (CO:HCT-116), TMI sheet, read-out: NCI-60 screening: Log(GI50) (converted)): 155 nM | GI50 (HCT-116, cell line HCT-116 (CO:HCT-116), TMI sheet, read-out: NCI-60 screening: Raw GI50): 150 nM | GI50 (HL-60, HL-60(TB), read-out: GI50): 48 nM | GI50 (HL-60, cell line HL-60(TB) (LE:HL-60(TB)), TMI sheet, read-out: NCI-60 screening: Log(GI50) (converted)): 47.9 nM | GI50 (HOP-62, HOP-62, read-out: GI50): 41 nM | GI50 (HOP-62, cell line HOP-62 (LC:HOP-62), TMI sheet, read-out: NCI-60 screening: Log(GI50) (converted)): 41.7 nM | GI50 (HOP-92, HOP-92, read-out: GI50): 180 nM | GI50 (HOP-92, cell line HOP-92 (LC:HOP-92), TMI sheet, read-out: NCI-60 screening: Log(GI50) (converted)): 178 nM | GI50 (HT-29, HT29, read-out: GI50): 140 nM | GI50 (HT-29, cell line HT29 (CO:HT29), TMI sheet, read-out: NCI-60 screening: Log(GI50) (converted)): 141 nM | GI50 (HT-29, cell line HT29 (CO:HT29), TMI sheet, read-out: NCI-60 screening: Raw GI50): 140 nM | GI50 (Hs-578T, read-out: GI50): 290 nM | GI50 (Hs-578T, read-out: NCI-60 screening: Log(GI50) (converted)): 295 nM | GI50 (IGROV-1, IGROV1 (OV) cell line, log10 of GI50 in M, read-out: NCI-60 screening: Log(GI50) (converted)): 200 nM | GI50 (IGROV-1, IGROV1, read-out: GI50): 200 nM | GI50 (K562, K-562, read-out: GI50): 89 nM | GI50 (K562, cell line K-562 (LE:K-562), TMI sheet, read-out: NCI-60 screening: Log(GI50) (converted)): 89.1 nM | GI50 (KM12, KM12, read-out: GI50): 130 nM | GI50 (KM12, cell line KM12 (CO:KM12), TMI sheet, read-out: NCI-60 screening: Log(GI50) (converted)): 132 nM | GI50 (KM12, cell line KM12 (CO:KM12), TMI sheet, read-out: NCI-60 screening: Raw GI50): 130 nM | GI50 (LOX IMVI, cell line LOX IMVI (ME:LOX IMVI), TMI sheet, read-out: NCI-60 screening: Log(GI50) (converted)): 69.2 nM | GI50 (LOX IMVI, read-out: GI50): 69 nM | GI50 (M14, M14, read-out: GI50): 120 nM | GI50 (MCF7, MCF7, read-out: GI50): 15 nM | GI50 (MCF7, cell line MCF7 (BR:MCF7), TMI sheet, read-out: NCI-60 screening: Log(GI50) (converted)): 14.8 nM | GI50 (MDA-MB-435, MDA-MB-435, read-out: GI50): 150 nM | GI50 (MDA-MB-435, cell line MDA-MB-435 (ME:MDA-MB-435), TMI sheet, read-out: NCI-60 screening: Log(GI50) (converted)): 148 nM | GI50 (MDA-MB-435, cell line MDA-MB-435 (ME:MDA-MB-435), TMI sheet, read-out: NCI-60 screening: Raw GI50): 150 nM | GI50 (MDA-MB-468, MDA-MB-468, read-out: GI50): 37 nM | GI50 (MOLT-4, MOLT-4, read-out: GI50): 63 nM | GI50 (MOLT-4, cell line MOLT-4 (LE:MOLT-4), TMI sheet, read-out: NCI-60 screening: Log(GI50) (converted)): 63.1 nM | GI50 (Malme-3M, cell line MALME-3M (ME:MALME-3M), TMI sheet, read-out: NCI-60 screening: Log(GI50) (converted)): 135 nM | GI50 (Malme-3M, cell line MALME-3M (ME:MALME-3M), TMI sheet, read-out: NCI-60 screening: Raw GI50): 130 nM | GI50 (Malme-3M, read-out: GI50): 130 nM | GI50 (NCI-H23, NCI-H23, read-out: GI50): 19 nM | GI50 (NCI-H23, cell line NCI-H23 (LC:NCI-H23), TMI sheet, read-out: NCI-60 screening: Log(GI50) (converted)): 18.6 nM | GI50 (NCI-H23, cell line NCI-H23 (LC:NCI-H23), TMI sheet, read-out: NCI-60 screening: Raw GI50): 19 nM | GI50 (NCI-H226, NCI-H226, read-out: GI50): 240 nM | GI50 (NCI-H226, cell line NCI-H226 (LC:NCI-H226), TMI sheet, read-out: NCI-60 screening: Log(GI50) (converted)): 245 nM | GI50 (NCI-H226, cell line NCI-H226 (LC:NCI-H226), TMI sheet, read-out: NCI-60 screening: Raw GI50): 240 nM | GI50 (NCI-H322M, read-out: GI50): 50 nM | GI50 (NCI-H322M, read-out: NCI-60 screening: Log(GI50) (converted)): 50.1 nM | GI50 (NCI-H460, NCI-H460 (LC) cell line, log10 of GI50 in M, read-out: NCI-60 screening: Log(GI50) (converted)): 22.4 nM | GI50 (NCI-H460, NCI-H460, read-out: GI50): 22 nM | GI50 (NCI-H522, NCI-H522 (LC) cell line, log10 of GI50 in M, read-out: NCI-60 screening: Log(GI50) (converted)): 55 nM | GI50 (NCI-H522, NCI-H522, read-out: GI50): 56 nM | GI50 (OVCAR-3, OVCAR-3 (OV) cell line, log10 of GI50 in M, read-out: NCI-60 screening: Log(GI50) (converted)): 145 nM | GI50 (OVCAR-3, OVCAR-3 (OV) cell line, read-out: NCI-60 screening: Raw GI50): 140 nM | GI50 (OVCAR-3, OVCAR-3, read-out: GI50): 140 nM | GI50 (OVCAR-4, OVCAR-4 (OV) cell line, log10 of GI50 in M, read-out: NCI-60 screening: Log(GI50) (converted)): 195 nM | GI50 (OVCAR-4, OVCAR-4, read-out: GI50): 190 nM | GI50 (OVCAR-5, OVCAR-5 (OV) cell line, log10 of GI50 in M, read-out: NCI-60 screening: Log(GI50) (converted)): 257 nM | GI50 (OVCAR-5, OVCAR-5, read-out: GI50): 250 nM | GI50 (OVCAR-8, OVCAR-8 (OV) cell line, log10 of GI50 in M, read-out: NCI-60 screening: Log(GI50) (converted)): 91.2 nM | GI50 (OVCAR-8, OVCAR-8, read-out: GI50): 92 nM | GI50 (PC-3 (PR) cell line, log10 of GI50 in M, read-out: NCI-60 screening: Log(GI50) (converted)): 479 nM | GI50 (PC-3, PC-3, read-out: GI50): 480 nM
